Experimental data taken from patent publication US20260123631A1, “NATURAL PORPHIN SALT AND USE THEREOF AS PLANT GROWTH REGULATOR AND PLANT IMMUNITY INDUCER” (NANJING BOSTEC BIOLOGICAL ENGINEERING CO., LTD, priority 2022, published 2026).

Tests used:
mosaic virus = assay: Controlling diseases in tobacco by spraying; type: in vivo, tobacco (Yunyan 87); conditions: 30 L/mu
Description: For each treatment, 4 plots relatively scattered were selected from the field, with each plot of 50 m^2. An agent was sprayed twice around May 28 and June 4 during a root-spreading stage (12 leaves to 14 leaves) after tobacco transplanting, respectively. A same spraying volume (30 L/mu) was adopted for each treatment. During the spraying operation, each leaf surface should be sprayed evenly without dead corners left.
On July 15, tobacco plants in all treatment plots were surveyed. An incidence grading survey was conducted according to the Grade and investigation method of tobacco diseases and insect pests GB/T23222-2008, and an incidence rate and a disease index were counted for each treatment plot.

[1] = Water solubility of the prepared salts; type: physicochemical
rice [2] = assay: Rice yield in the sheath blight field experiment; type: in vivo, rice (Nanjing 9108); conditions: 3.0 mg/mu sprayed 3 times
Procedure: A test sample was dissolved, diluted, thoroughly stirred, and then applied, with an application area of 3 mu for each treatment. The harvesting was conducted on Nov. 8, 2021. On the eve of harvesting, the yield composition and structure were investigated. Then a yield per mu was measured.

rice [3] = assay: Alleviation of herbicide damage in rice; type: in vivo, rice (Jinjing 818); conditions: 0.25 ppm
Procedure: Method: A treatment plot of 1.5 mu and a control plot of 1.5 mu were set. The sample was sprayed twice after the herbicide damage occurred in rice sprayed with a herbicide. Clear water was adopted as a blank control. Specific operations were as follows:
On June 20 when weeds had 3 leaves and rice had 3 to 3.5 leaves, the treatment plot and the control plot both were treated with 4% imazamox at 200 mL/mu and 10% pyribenzoxim at 40 mL/mu by a stem and leaf spray method, with 30 kg of water per mu. One week later, a weeding effect was prominent, but rice underwent obvious pesticide damage. 10 d after the herbicide application (June 30), the treatment plot was sprayed with the sample at 7.5 mg/mu by a stem and leaf spray method, with a solution of 30 L per mu. The control plot was sprayed with clear water. At an inflorescence emergence stage of rice (August 25), the spraying was conducted once again by the same method.

sheath blight in rice = assay: Field control of sheath blight in rice; type: in vivo, rice (Nanjing 9108); conditions: 3.0 mg/mu sprayed 3 times (0.100, 0.067, 0.067 ppm)
Procedure: A test sample was dissolved, diluted, thoroughly stirred, and then applied, with an application area of 3 mu for each treatment. Before harvesting, five-point sampling (20 m^2 per sampling point) was conducted for each treatment to determine the details of sheath blight in rice.

[4] = Dilution and pH determination for sample solutions; type: physicochemical
Procedure: Method: 0.2500 g of a sample was accurately weighed and added to a 25 mL volumetric flask, dissolved with purified water, and diluted to a specified scale to prepare a 1.00% (10,000.0 ppm) initial solution. The initial solution was diluted with purified water in different ratios to prepare a series of solutions with a concentration of 1,000.0 ppm to 0.1 ppm. A pH value of each sample was determined three times.

tobacco = assay: Spraying on tobacco to improve a yield; type: in vivo, tobacco (Yunyan 87); conditions: 45 L per mu
Procedure: Method: Four spraying concentrations were set. For each treatment, four plots were adopted, with each plot of 20 m^2. […] During harvesting, sampling was conducted to count a plant height, a leaf length, a leaf width, and a single-leaf weight. All tobacco leaves of the plots were baked into flue-cured tobacco. […]

wheat = assay: Germination of wheat and growth of seedlings; type: in vivo, wheat (Huaimai 35); conditions: for Root length / Root number / Root weight / Seedling height / Seedling weight: wheat seedlings
Procedure: Method: 3 replicates were set for each treatment. 50 full seeds with a consistent size were selected each time for each sample, disinfected with sodium hypochlorite for 5 min, rinsed with clear water, and placed in a plastic box filled with 100 g of a sand. 25 mL of a prepared sample solution was poured into the plastic box, and the seeds were arranged regularly. The plastic box was covered with a lid, and then incubated in a 25° C. incubator. The germination was determined when a length of a sprout of a wheat seed exceeded a half of a diameter (long axis) of the wheat seed (determination criterion). According to the growth of wheat, the germ exposure of seeds and the number of germinated seeds were recorded every day. On day 6, 10 wheat seedlings were randomly selected, and a root length, a plant height, and a root number were determined. On day 7, a root weight and an aboveground part weight were determined. All index data was produced based on 3 replicates.

[5] = 7.5 mg/mu sprayed twice after imazamox/pyribenzoxim damage

sodium iron chlorin [Example 21]
Disease index (mosaic virus; 0.05 ppm sprayed twice): 8.94 | Relative control effect (mosaic virus; 0.05 ppm sprayed twice): 65.48% | Disease index (mosaic virus; 0.10 ppm sprayed twice): 8.77 | Relative control effect (mosaic virus; 0.10 ppm sprayed twice): 66.13% | Disease index (mosaic virus; 0.20 ppm sprayed twice): 8.15 | Relative control effect (mosaic virus; 0.20 ppm sprayed twice): 71.00% | solubility in water [1]: easily soluble | Ear number per mu (rice [2]): 26.14 10,000 | Filled grain number per ear (rice [2]): 99.93 | Thousand-grain weight (rice [2]): 27.00 g | Yield (rice [2]): 705.38 kg/mu | Yield increase rate (rice [2]; versus clear water): 11.46% | Actual yield (rice [3]; [5]): 675 kg/mu | Ear number/mu (rice [3]; [5]): 275945.5 | Filled grain number/ear (rice [3]; [5]): 97.64 | Grain number/ear (rice [3]; [5]): 104.5 | Seed set rate (rice [3]; [5]): 0.9344 | Theoretical yield (rice [3]; [5]): 816.8 kg/mu | Thousand-grain weight (rice [3]; [5]): 30.30 g | increase of yield per mu (rice [3]; 7.5 mg/mu sprayed twice, versus clear water): ≥ 22% | Corrected control (sheath blight in rice): 45.16% | Disease index (sheath blight in rice): 21.61% | Diseased plant rate (sheath blight in rice): 10.4% | pH ([4]; 0.1 ppm in purified water): (6.79) | pH ([4]; 1.0 ppm in purified water): (6.89) | pH ([4]; 10.0 ppm in purified water): (7.23) | pH ([4]; 20.0 ppm in purified water): (7.42) | pH ([4]; 30.0 ppm in purified water): (7.51) | pH ([4]; 100.0 ppm in purified water): (8.34) | pH ([4]; 1000.0 ppm in purified water): (9.71) | pH ([4]; 10000.0 ppm in purified water): (10.41) | Leaf length (tobacco; 0.05 ppm sprayed twice): 76.0 cm | Leaf width (tobacco; 0.05 ppm sprayed twice): 28.5 cm | Plant height (tobacco; 0.05 ppm sprayed twice): 114.2 cm | Weight/leaf (tobacco; 0.05 ppm sprayed twice): 8.4 g | Yield (tobacco; 0.05 ppm sprayed twice): 133.75 kg/mu | Yield increase rate (tobacco; 0.05 ppm sprayed twice): 9.4% | Leaf length (tobacco; 0.10 ppm sprayed twice): 77.2 cm | Leaf width (tobacco; 0.10 ppm sprayed twice): 28.9 cm | Plant height (tobacco; 0.10 ppm sprayed twice): 116.7 cm | Weight/leaf (tobacco; 0.10 ppm sprayed twice): 8.7 g | Yield (tobacco; 0.10 ppm sprayed twice): 138.67 kg/mu | Yield increase rate (tobacco; 0.10 ppm sprayed twice): 13.5% | Leaf length (tobacco; 0.20 ppm sprayed twice): 75.6 cm | Leaf width (tobacco; 0.20 ppm sprayed twice): 28.4 cm | Plant height (tobacco; 0.20 ppm sprayed twice): 114.3 cm | Weight/leaf (tobacco; 0.20 ppm sprayed twice): 8.4 g | Yield (tobacco; 0.20 ppm sprayed twice): 133.59 kg/mu | Yield increase rate (tobacco; 0.20 ppm sprayed twice): 9.3% | Leaf length (tobacco; 0.30 ppm sprayed twice): 74.7 cm | Leaf width (tobacco; 0.30 ppm sprayed twice): 28 cm | Plant height (tobacco; 0.30 ppm sprayed twice): 114.5 cm | Weight/leaf (tobacco; 0.30 ppm sprayed twice): 8.3 g | Yield (tobacco; 0.30 ppm sprayed twice): 132.54 kg/mu | Yield increase rate (tobacco; 0.30 ppm sprayed twice): 8.5% | Germination rate of wheat (wheat; 0.0025 ppm): 94.0% | Root length (wheat; 0.0025 ppm): 9.30 cm | Root number (wheat; 0.0025 ppm): 5.3 | Root weight (wheat; 0.0025 ppm): 0.0953 g | Seedling height (wheat; 0.0025 ppm): 8.88 cm | Seedling weight (wheat; 0.0025 ppm): 0.170 g | Germination rate of wheat (wheat; 0.0250 ppm): 95.3% | Root length (wheat; 0.0250 ppm): 10.17 cm | Root number (wheat; 0.0250 ppm): 5.2 | Root weight (wheat; 0.0250 ppm): 0.1027 g | Seedling height (wheat; 0.0250 ppm): 9.13 cm | Seedling weight (wheat; 0.0250 ppm): 0.178 g | Germination rate of wheat (wheat; 0.2500 ppm): 93.3% | Root length (wheat; 0.2500 ppm): 9.64 cm | Root number (wheat; 0.2500 ppm): 4.9 | Root weight (wheat; 0.2500 ppm): 0.0867 g | Seedling height (wheat; 0.2500 ppm): 7.95 cm | Seedling weight (wheat; 0.2500 ppm): 0.145 g
